Measurements reported in the supplement of paper PMC11061612.

What was measured:
Test in all cases: combination Emax (second highest fraction inhibited in the dose matrix, 72 h); higher = more inhibition; extreme values may be limits of the assay
[1] = system: IHH-4 (Thyroid Gland Carcinoma)
Method in brief: (§1)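 Cell lines in DMEM/F12 or RPMI with 10% FBS were plated in 1536-well plates, held 24 hours at 37°C, 5% CO2, then given two-drug dose matrices for 72 hours (DMSO typically 0.2%). Viability was read by CellTiter-Glo 2.0 luminescence and scaled as inhibition from 0 (vehicle wells) to 1 (blank wells). Combination Emax is the second-highest inhibition in the matrix; Bliss excess is observed combination effect minus expected EA + EB − EA·EB, EA and EB being single-agent effects.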

RH-1 (Ewing's Sarcoma) = system: RH-1 (Ewing's Sarcoma)
Method in brief: as §1

IGR-1 (Melanoma) = system: IGR-1 (Melanoma)
Method in brief: as §1

[2] = system: TGBC24TKB (Biliary Tract Carcinoma)
Method in brief: as §1

[3] = system: KARPAS-1106P (B-Cell Non-Hodgkin's Lymphoma)
Method in brief: as §1

[4] = system: 697 (B-Lymphoblastic Leukemia)
Method in brief: as §1

NCI-H2369 (Mesothelioma) = system: NCI-H2369 (Mesothelioma)
Method in brief: as §1

[5] = system: KARPAS-620 (Plasma Cell Myeloma)
Method in brief: as §1

[6] = system: SW1088 (Low Grade Glioma)
Method in brief: as §1

SN12C (Kidney Carcinoma) = system: SN12C (Kidney Carcinoma)
Method in brief: as §1

[7] = system: SUIT-2 (Pancreatic Carcinoma)
Method in brief: as §1

[8] = system: SW780 (Bladder Carcinoma)
Method in brief: as §1

[9] = system: HCC2157 (Breast Carcinoma)
Method in brief: as §1

[10] = system: G-292-Clone-A141B1 (Osteosarcoma)
Method in brief: as §1

[11] = system: LS-513 (Colorectal Carcinoma)
Method in brief: as §1

[12] = system: DOV13 (Ovarian Carcinoma)
Method in brief: as §1

[13] = system: LU-99A (Non-Small Cell Lung Carcinoma)
Method in brief: as §1

[14] = system: NCI-H1793 (Lung Adenocarcinoma)
Method in brief: as §1

ES7 (Ewing's Sarcoma) = system: ES7 (Ewing's Sarcoma)
Method in brief: as §1

[15] = system: CFPAC-1 (Pancreatic Carcinoma)
Method in brief: as §1

Row | Structure (SMILES) | combination Emax [1] | combination Emax (RH-1 (Ewing's Sarcoma)) | combination Emax (IGR-1 (Melanoma)) | combination Emax [2] | combination Emax [3] | combination Emax [4] | combination Emax (NCI-H2369 (Mesothelioma)) | combination Emax [5] | combination Emax [6] | combination Emax (SN12C (Kidney Carcinoma)) | combination Emax [7] | combination Emax [8] | combination Emax [9] | combination Emax [10] | combination Emax [11] | combination Emax [12] | combination Emax [13] | combination Emax [14] | combination Emax (ES7 (Ewing's Sarcoma)) | combination Emax [15]
1 | C[C@@H]1COCCN1c1cc(C2([S@](C)(=N)=O)CC2)nc(-c2ccnc3[nH]ccc23)n1 [AZD6738] + O=C(c1cc(Cc2n[nH]c(=O)c3ccccc23)ccc1F)N1CCN(C(=O)C2CC2)CC1 [Olaparib] (first compound max 10 µM, 7x7, partner max 10 µM) | 0.773 | 0.965 | 0.452 | 0.693 | 0.672 | 1 | 0.133 | 0.544 | 0.501 | 0.249 | 0.676 | 0.181 | 0.907 | 0.283 | 0.722 | 0.915 | 0.712 | 0.379 | 0.962 | –
2 | CCc1c2c(nc3ccc(O)cc13)-c1cc3c(c(=O)n1C2)COC(=O)[C@]3(O)CC [SN-38] + O=C(c1cc(Cc2n[nH]c(=O)c3ccccc23)ccc1F)N1CCN(C(=O)C2CC2)CC1 [Olaparib] (first compound max 0.3 µM, 7x7, partner max 10 µM) | 0.921 | 1 | 0.634 | 0.472 | 0.943 | 1 | 0.265 | 0.25 | 0.434 | 0.738 | 0.728 | – | – | 0.179 | 0.665 | 0.939 | 0.649 | – | 1 | 0.831
3 | CC(=O)c1c(C)c2cnc(Nc3ccc(N4CCNCC4)cn3)nc2n(C2CCCC2)c1=O [Palbociclib] + CN(CC[C@H](CSC1=CC=CC=C1)NC2=C(C=C(C=C2)S(=O)(=O)NC(=O)C3=CC=C(C=C3)N4CCC(CC4)[C@H](C5=CC=CC=C5C6=CC=C(C=C6)Cl)O)S(=O)(=O)C(F)(F)F)CCO [AZD4320] (first compound max 10 µM, 7x7, partner max 1 µM) | – | 0.684 | 0.976 | 0.736 | – | 1 | 0.259 | – | – | – | 0.354 | 0.395 | 0.994 | – | – | – | 0.297 | 0.337 | – | 0.419
4 | Cc1c2c(nn1C)CSCc1cc(n(C)n1)CSc1cc(c3ccccc3c1)OCCCc1c(C(=O)O)n(C)c3c-2c(Cl)ccc13 [AZD5991] + Cc1cc2ncnn2cc1Nc1ncc2c(n1)n(C1CCOCC1)c(=O)n2C [AZD7648] (first compound max 1 µM, 7x7, partner max 10 µM) | 0.35 | 0.605 | 0.237 | 0.243 | 0.939 | 1 | 0.17 | 1 | 0.423 | 0.269 | 0.179 | – | 0.984 | 0.267 | 0.319 | 0.458 | 0.414 | 0.41 | 0.682 | 0.259
5 | C[C@@H](c1ccc2nccn2c1)n1nnc2ncc(-c3cnn(C)c3)nc21 [Savolitinib] + CN(CC[C@H](CSC1=CC=CC=C1)NC2=C(C=C(C=C2)S(=O)(=O)NC(=O)C3=CC=C(C=C3)N4CCC(CC4)[C@H](C5=CC=CC=C5C6=CC=C(C=C6)Cl)O)S(=O)(=O)C(F)(F)F)CCO [AZD4320] (first compound max 1 µM, 7x7, partner max 1 µM) | – | 0.488 | 0.409 | 0.561 | – | 1 | 0.114 | – | – | – | 0.241 | 0.393 | 0.934 | – | – | – | 0.245 | 0.168 | – | 0.143
6 | C=CCn1c(=O)c2cnc(Nc3ccc(N4CCN(C)CC4)cc3)nc2n1-c1cccc(C(C)(C)O)n1 [AZD1775] + C1CN(CCC1(C(=O)N[C@@H](CCO)C2=CC=C(C=C2)Cl)N)C3=NC=NC4=C3C=CN4 [Capivasertib] (first compound max 3 µM, partner max 3 µM) | 0.91 | 0.98 | 0.482 | 0.811 | 0.909 | 1 | 0.3 | 0.857 | 0.723 | 0.359 | 0.586 | 0.399 | – | 0.492 | 0.81 | 0.775 | 0.623 | 0.428 | 0.808 | 0.723
7 | COc1nnc2ccc(N3CCC(c4ccc(OCCN5CCN(C)C(=O)[C@H]5C)cc4)CC3)nn12 [AZD5153] + CN(CC[C@H](CSC1=CC=CC=C1)NC2=C(C=C(C=C2)S(=O)(=O)NC(=O)C3=CC=C(C=C3)N4CCC(CC4)[C@H](C5=CC=CC=C5C6=CC=C(C=C6)Cl)O)S(=O)(=O)C(F)(F)F)CCO [AZD4320] (first compound max 1 µM, 7x7, partner max 1 µM) | – | 0.49 | 0.909 | 0.932 | – | 1 | 0.299 | – | – | – | 0.306 | 0.369 | 1 | – | – | – | 0.937 | 0.323 | – | 0.401
